Our source for the NOAEL, LD50 and LC50 values is EPA's ToxValDB 9.5 (doi:10.2903/j.efsa.2009.191r).

Structures are written as SMILES.

Data set [1] concerns Canidae. The settings on record: chronic; duration: 1 years; oral; Dog Other; clinical signs.
For data set [2], the system named is Apis mellifera. The settings on record: acute, mortality.
The test system of data set [3] is Rattus norvegicus. The settings on record: acute; oral; mortality.
Data set [4] deals with Colinus virginianus. The settings on record: acute, oral, mortality; for LC50: diet.
Data set [5] concerns Daphnia magna. The settings on record: acute; duration: 48 hours; mortality.
Data set [6] deals with Oncorhynchus mykiss. The settings on record: acute; duration: 96 hours; mortality.
In data set [7] the test system is Anas platyrhynchos. The settings on record: short-term; oral; feed; mortality.

The molecule `COc1ccc([N+](=O)[O-])cc1[O-].[Na+]` [Sodium 2-methoxy-5-nitrophenolate] gave an NOAEL in data set [1] of 0.3 mg/kg-day. In addition, the LD50 in data set [2] (dermal) was more than 100 µg/piece; in data set [2] (oral, unspecified), 132 µg/piece; in data set [3], 716 mg/kg-day; in data set [4], 2070 mg/kg-day. In data set [4], this molecule gave an LC50 of 1830 mg/kg-day.

The molecule `O=[N+]([O-])c1ccc([O-])cc1.[Na+]` [Sodium 4-nitrophenolate] had an NOAEL in data set [1] of 0.3 mg/kg-day. Besides, the LD50 in data set [2] (dermal) was 111 µg/piece; in data set [2] (oral, unspecified), more than 61.2 µg/piece; in data set [3], 346 mg/kg-day; in data set [4] it was more than 1670 mg/kg-day. Further, the LC50 in data set [5] was 27.7 µg/mL; in data set [6], 25 µg/mL; in data set [4], more than 1410 mg/kg-day.

Take `O=[N+]([O-])c1ccccc1[O-].[Na+]` [Sodium 2-nitrophenolate]: the LD50 in data set [2] (dermal) was more than 100 µg/piece; in data set [2] (oral, unspecified), 124 µg/piece; in data set [3], 960 mg/kg-day; in data set [4], 1050 mg/kg-day. The LC50 in data set [4] is more than 2700 mg/kg-day; in data set [7], more than 2540 mg/kg-day.
